Literature values as cited in patent US12358215B2, “Binders and methods of binder jetting including branched polymer binders and articles made therefrom” (VIRGINIA TECH INTELLECTUAL PROPERTIES, INC., priority 2019, dated 2025).

- solubility in cold water: only slightly soluble
SMILES: CC(=O)Nc1ccc(O)cc1 [Acetaminophen, acetaminophen]
